Data as given in patent EP4752149A1, “OXYGEN-CONTAINING FUSED TRICYCLIC DERIVATIVE, AND PREPARATION METHOD THEREFOR AND USE THEREOF” (Tuojie Biotech (Shanghai) Co., Ltd., priority 2023, dated 2025).

System: Ovarian cancer cells (OVCAR3)
Test: Inhibitory activity against ovarian cancer cells (OVCAR3), CTG cell viability
Assay type: cell-based
Conditions: Homo sapiens, OVCAR-3, 168 h, 7 days with compound
Protocol: Ovarian cancer cells (OVCAR3) were cultured using an RPMI 1640 culture medium containing 10% FBS in a cell incubator (37 °C, 5% CO2). On day one, the cells were plated in a 384-well plate at a cell concentration of 800 cells/well and cultured overnight in an incubator. On day two, the cells were treated with compounds. The highest compound concentration was 10 µM and was diluted 3-fold to obtain 9 concentrations, and the final concentration of DMSO was 0.1%. After the cells were cultured in the incubator for another 7 days, the cell viability was tested using a CTG Cell Viability Detection Reagent (MCE); the testing method was consistent with the method provided by the kit. Data were processed using GraphPad Prism 8, and IC50 was calculated. [formula] X: the logarithm of the compound concentration; Y: inhibition%. Table 2. The IC50 (nM) of compounds of the present disclosure against OVCAR3

| SMILES | IC50 |
| --- | --- |
| Cc1nc2c(F)cc(-c3nc(Nc4ccc(N5CCOCC5=O)cc4F)ncc3F)c3c2n1[C@@H](C)CO3 [Example 6, (S)-4-(3-Fluoro-4-((5-fluoro-4-(8-fluoro-2,3-dimethyl-3,4-dihydro-5-oxa-1,2a-diazaacenaphthylen-6-yl)pyrimidin-2-yl)amino)phenyl)morpholin-3-one] | 80.2 nM |
| C[C@H]1COc2c(-c3nc(Nc4ccc(N5CCOCC5=O)cc4)ncc3Cl)cc(F)c3nc(C(C)(C)O)n1c23 [Example 10, (S)-4-(4-((5-Chloro-4-(8-fluoro-2-(2-hydroxypropan-2-yl)-3-methyl-3,4-dihydro-5-oxa-1,2a-diazaacenaphthylen-6-yl)pyrimidin-2-yl)amino)phenyl)morpholin-3-one] | 230 nM |
| C[C@H]1COc2c(-c3nc(Nc4ccc(N5CCC(N(C)C)CC5=O)cc4F)ncc3Cl)cc(F)c3nc(C(C)(C)O)n1c23 (stereo partly drawn) [Example 12, 1-(4-((5-Chloro-4-((S)-8-fluoro-2-(2-hydroxypropan-2-yl)-3-methyl-3,4-dihydro-5-oxa-1,2a-diazaacenaphthylen-6-yl)pyrimidin-2-yl)amino)-3-fluorophenyl)-4-(dimethylamino)piperidin-2-one] | 643 nM |
| C[C@H]1COc2c(-c3nc(Nc4ccc(S(C)(=N)=O)cc4)ncc3F)cc(F)c3nc(C(C)(C)O)n1c23 (stereo partly drawn) [Example 17, (4-((5-Fluoro-4-((S)-8-fluoro-2-(2-hydroxypropan-2-yl)-3-methyl-3,4-dihydro-5-oxa-1,2a-diazaacenaphthylen-6-yl)pyrimidin-2-yl)amino)phenyl)(methyl)sulfonimide] | 154 nM |
| C[C@H]1COc2c(-c3nc(Nc4ccc(CC#N)cc4)ncc3Cl)cc(F)c3nc(C(C)(C)O)n1c23 [Example 29] | 335 nM |
| CNS(=O)(=O)c1ccc(Nc2ncc(Cl)c(-c3cc(F)c4nc(C(C)(C)O)n5c4c3OC[C@@H]5C)n2)cc1 [Example 5, (S)-4-((5-Chloro-4-(8-fluoro-2-(2-hydroxypropan-2-yl)-3-methyl-3,4-dihydro-5-oxa-1,2a-diazaacenaphthylen-6-yl)pyrimidin-2-yl)amino)-N-methylbenzenesulfonamide] | 89.9 nM |
| C[C@H]1COc2c(-c3nc(Nc4ccc(S(C)(=N)=O)cc4F)ncc3F)cc(F)c3nc(C(C)(C)O)n1c23 (stereo partly drawn) [Example 15, (3-Fluoro-4-((5-fluoro-4-((S)-8-fluoro-2-(2-hydroxypropan-2-yl)-3-methyl-3,4-dihydro-5-oxa-1,2a-diazaacenaphthylen-6-yl)pyrimidin-2-yl)amino)phenyl)(methyl)sulfonimide] | 636 nM |
| CNS(=O)(=O)c1ccc(Nc2ncc(F)c(-c3cc(F)c4nc(C(C)(C)O)n5c4c3OC[C@@H]5C)n2)c(F)c1 [Example 16, (S)-3-Fluoro-4-((5-fluoro-4-(8-fluoro-2-(2-hydroxypropan-2-yl)-3-methyl-3,4-dihydro-5-oxa-1,2a-diazaacenaphthylen-6-yl)pyrimidin-2-yl)amino)-N-methylbenzenesulfonamide] | 222 nM |
| C[C@H]1COc2c(-c3nc(Nc4ccc(N5CCOCC5=O)cc4F)ncc3F)cc(F)c3ncn1c23 [Example 2, (S)-4-(3-Fluoro-4-((5-fluoro-4-(8-fluoro-3-methyl-3,4-dihydro-5-oxa-1,2a-diazaacenaphthylen-6-yl)pyrimidin-2-yl)amino)phenyl)morpholin-3-one] | 47.5 nM |
| CNC(=O)c1ccc(Nc2ncc(Cl)c(-c3cc(F)c4nc(C(C)(C)O)n5c4c3OC[C@@H]5C)n2)cc1 [Example 11, (S)-4-((5-Chloro-4-(8-fluoro-2-(2-hydroxypropan-2-yl)-3-methyl-3,4-dihydro-5-oxa-1,2a-diazaacenaphthylen-6-yl)pyrimidin-2-yl)amino)-N-methylbenzamide] | 673 nM |
| CNS(=N)(=O)c1ccc(Nc2ncc(Cl)c(-c3cc(F)c4nc(C(C)(C)O)n5c4c3OC[C@@H]5C)n2)c(F)c1 (stereo partly drawn) [Example 9, 4-((5-Chloro-4-((S)-8-fluoro-2-(2-hydroxypropan-2-yl)-3-methyl-3,4-dihydro-5-oxa-1,2a-diazaacenaphthylen-6-yl)pyrimidin-2-yl)amino)-3-fluoro-N-methylbenzenesulfonimide] | 752 nM |

The remaining lines, values ahead:

| IC50 | SMILES |
| --- | --- |
| 255 nM | C[C@H]1COc2c(-c3nc(Nc4ccc(N5CCOCC5=O)c(F)c4)ncc3Cl)cc(F)c3nc(C(C)(C)O)n1c23 [Example 24, (S)-4-(4-((5-Chloro-4-(8-fluoro-2-(2-hydroxypropan-2-yl)-3-methyl-3,4-dihydro-5-oxa-1,2a-diazaacenaphthylen-6-yl)pyrimidin-2-yl)amino)2-fluorophenyl)morpholin-3-one] |
| 137 nM | C[C@H]1COc2c(-c3nc(Nc4ccc(N5CCOCC5=O)cc4F)ncc3F)cc(F)c3nc(C4(O)CCC4)n1c23 [Example 28, (S)-4-(3-Fluoro-4-((5-fluoro-4-(8-fluoro-2-(1-hydroxycyclobutyl)-3-methyl-3,4-dihydro-5-oxa-1,2a-diazaacenaphthylen-6-yl)pyrimidin-2-yl)amino)phenyl)morpholin-3-one] |
| 690 nM | C[C@H]1COc2c(-c3nc(Nc4ccc(C(=O)N5CC[C@@H](N(C)C)C5)c(Cl)c4)ncc3Cl)cc(F)c3nc(C(C)(C)O)n1c23 [Example 38, (2-Chloro-4-((5-chloro-4-((S)-8-fluoro-2-(2-hydroxypropan-2-yl)-3-methyl-3,4-dihydro-5-oxa-1,2a-diazaacenaphthylen-6-yl)pyrimidin-2-yl)amino)phenyl)((R)-3-(dimethylamino)pyrrolidin-1-yl)methanone] |
| 517 nM | COCc1nc2c(F)cc(-c3nc(Nc4ccc(N5CCOCC5=O)cc4F)ncc3F)c3c2n1[C@@H](C)CO3 [Example 26, (S)-4-(3-Fluoro-4-((5-fluoro-4-(8-fluoro-2-(methoxymethyl)-3-methyl-3,4-dihydro-5-oxa-1,2a-diazaacenaphthylen-6-yl)pyrimidin-2-yl)amino)phenyl)morpholin-3-one] |
| 409 nM | C[C@H]1COc2c(-c3nc(Nc4ccc(N5CCOCC5=O)c(Cl)c4)ncc3Cl)cc(F)c3nc(C(C)(C)O)n1c23 [Example 25, (S)-4-(2-Chloro-4-((5-chloro-4-(8-fluoro-2-(2-hydroxypropan-2-yl)-3-methyl-3,4-dihydro-5-oxa-1,2a-diazaacenaphthylen-6-yl)pyrimidin-2-yl)amino)phenyl)morpholin-3-one] |
| 364 nM | C[C@H]1COc2c(-c3nc(Nc4ccc(C(=O)N5CC[C@H](N(C)C)C5)cc4)ncc3Cl)cc(F)c3nc(C(C)(C)O)n1c23 [Example 40, (4-((5-Chloro-4-((S)-8-fluoro-2-(2-hydroxypropan-2-yl)-3-methyl-3,4-dihydro-5-oxa-1,2a-diazaacenaphthylen-6-yl)pyrimidin-2-yl)amino)phenyl)((S)-3-(dimethylamino)pyrrolidin-1-yl)methanone] |
| 961 nM | C[C@H]1COc2c(-c3nc(Nc4ccc(C(=O)N5CC[C@H](N(C)C)C5)c(Cl)c4)ncc3Cl)cc(F)c3nc(C(C)(C)O)n1c23 [Example 36, (2-Chloro-4-((5-chloro-4-((S)-8-fluoro-2-(2-hydroxypropan-2-yl)-3-methyl-3,4-dihydro-5-oxa-1,2a-diazaacenaphthylen-6-yl)pyrimidin-2-yl)amino)phenyl)((S)-3-(dimethylamino)pyrrolidin-1-yl)methanone] |
| 276 nM | C[C@H]1COc2c(-c3nc(Nc4ccc(S(C)(=N)=O)cc4)ncc3Cl)cc(F)c3nc(C(C)(C)O)n1c23 (stereo partly drawn) [Example 19, (4-((5-Chloro-4-((S)-8-fluoro-2-(2-hydroxypropan-2-yl)-3-methyl-3,4-dihydro-5-oxa-1,2a-diazaacenaphthylen-6-yl)pyrimidin-2-yl)amino)phenyl)(methyl)sulfinamide] |
| 260 nM | CC(O)c1nc2c(F)cc(-c3nc(Nc4ccc(N5CCOCC5=O)cc4F)ncc3F)c3c2n1[C@@H](C)CO3 (stereo partly drawn) [Example 21, 4-(3-Fluoro-4-((5-fluoro-4-((3S)-8-fluoro-2-(1-hydroxyethyl)-3-methyl-3,4-dihydro-5-oxa-1,2a-diazaacenaphthylen-6-yl)pyrimidin-2-yl)amino)phenyl)morpholin-3-one] |
| 674 nM | C[C@H]1COc2c(-c3nc(Nc4ccc(C(=O)N5CC[C@@H](N(C)C)C5)cc4)ncc3Cl)cc(F)c3nc(C(C)(C)O)n1c23 [Example 42, (4-((5-Chloro-4-((S)-8-fluoro-2-(2-hydroxypropan-2-yl)-3-methyl-3,4-dihydro-5-oxa-1,2a-diazaacenaphthylen-6-yl)pyrimidin-2-yl)amino)phenyl)((R)-3-(dimethylamino)pyrrolidin-1-yl)methanone] |
| 426 nM | CCN1CCN(C(=O)c2ccc(Nc3ncc(Cl)c(-c4cc(F)c5nc(C(C)(C)O)n6c5c4OC[C@@H]6C)n3)cc2F)CC1 [Example 32, (S)-(4-((5-Chloro-4-(8-fluoro-2-(2-hydroxypropan-2-yl)-3-methyl-3,4-dihydro-5-oxa-1,2a-diazaacenaphthylen-6-yl)pyrimidin-2-yl)amino)-2-fluorophenyl)(4-ethylpiperazin-1-yl)methanone] |
| 103 nM | C[C@H]1COc2c(-c3nc(Nc4ccc(N5CCOCC5=O)cc4)ncc3F)cc(F)c3nc(C(C)(C)O)n1c23 [Example 18, (S)-4-(4-((5-Fluoro-4-(8-fluoro-2-(2-hydroxypropan-2-yl)-3-methyl-3,4-dihydro-5-oxa-1,2a-diazaacenaphthylen-6-yl)pyrimidin-2-yl)amino)phenyl)morpholin-3-one] |
| 202 nM | C[C@H]1COc2c(-c3nc(Nc4ccc(C(=O)N5CC[C@H](N(C)C)C5)c(F)c4)ncc3Cl)cc(F)c3nc(C(C)(C)O)n1c23 [Example 35, (4-((5-Chloro-4-((S)-8-fluoro-2-(2-hydroxypropan-2-yl)-3-methyl-3,4-dihydro-5-oxa-1,2a-diazaacenaphthylen-6-yl)pyrimidin-2-yl)amino)2-fluorophenyl)((S)-3-(dimethylamino)pyrrolidin-1-yl)methanone] |
